The assay in a line: OSI test of high oleic sunflower oil mixed with additive. The settings on record: 1.0% additive, 130° C. The source says: A presently preferred method of determining oxidative stability of lipids and oils employs the Oxidative Stability Index (OSI), which determines the oxidative stability of an oil by passing air through a sample under stringent temperature control. (Firestone, Oxidative Stability Index (OSI): Official Methods of Recommended Practices of the American Oil Chemists' Society (AOCS), 4th Ed. American Oil Chemists Society, Champaign, Ill., AOCS Official Method Cd 12b-92, 1993.) In this method, a stream of air is passed through the oil sample, which aids in the rapid degradation of the triglyceride into volatile organic acids. The air stream flushes the volatile acids from the oil into a conductivity cell containing water where the acids are solubilized. These acids, once dissolved in the water solution, disassociate into ions, thus changing the conductivity of the water. Therefore, a continuous measure of the conductivity of the cell by computer will indicate when a rapid rise in the conductivity occurs that corresponds to the induction point, oxidative failure of the sample. […]
Unless otherwise stated, Oxidative Stability Index (OSI) values were determined on 5.00 ±0.05 g lipid or oil samples in triplicate according to AOCS Official Method Cd 12b-92 (AOCS, 1993) at 90° C., 110° C. and/or 130° C. on an oxidative stability instrument manufactured by Omnion (Rockland, Mass.). […]

`COc1cccc(CNC(=S)NCc2cccc(OC)c2)c1` [1,3-di(3-methoxybenzyl) thiourea]: the OSI Time turned out to be 157 h and the “improvement of OSI time compared to sunflower oil alone” value came out at 1720%.
